Test results from the NIST ThermoML archive (doi:10.1016/j.jct.2018.03.017).
Where “and” joins values, the source holds several entries; their conditions need not be identical. Equal entries are not always repeated. Numbers after ± are expanded uncertainties.

Assay: xn = mol fraction of the nth substance listed
Settings: 96 kPa, Liquid, Pycnometric method

C1CCC2=NCCCN2CC1 [1,8-diaza-7-bicyclo[5.4.0]undecene] + OCC(O)CO
mass density
Settings	288.15 K	293.15 K	298.15 K	303.15 K	308.15 K	313.15 K	318.15 K	323.15 K	328.15 K
x1 = 0.0501	1251.8 ± 8.6 kg/m3	–	1245.4 ± 8.6 kg/m3	–	1239 ± 8.6 kg/m3	–	1232.2 ± 8.6 kg/m3	–	1224.9 ± 8.6 kg/m3
x1 = 0.0909	1238.4 ± 8.6 kg/m3	–	1231.7 ± 8.6 kg/m3	–	1224.7 ± 8.6 kg/m3	–	1217.1 ± 8.6 kg/m3	–	1208.3 ± 8.6 kg/m3
x1 = 0.0926	–	1236.7 ± 8.6 kg/m3	–	1229.7 ± 8.6 kg/m3	–	1222.9 ± 8.6 kg/m3	–	1216 ± 8.6 kg/m3	–
x1 = 0.1667	1211.2 ± 8.6 kg/m3	–	1204.2 ± 8.6 kg/m3	–	1196.4 ± 8.6 kg/m3	–	1188.2 ± 8.6 kg/m3	–	1180.2 ± 8.6 kg/m3
x1 = 0.1902	–	1197.8 ± 8.6 kg/m3	–	1191.9 ± 8.6 kg/m3	–	1184.5 ± 8.6 kg/m3	–	1177.6 ± 8.6 kg/m3	–
x1 = 0.2	1200.6 ± 8.6 kg/m3	–	1192.3 ± 8.6 kg/m3	–	1184.9 ± 8.6 kg/m3	–	1176.9 ± 8.6 kg/m3	–	1170.9 ± 9.6 kg/m3 and 1169.4 ± 8.6 kg/m3
x1 = 0.2153	1195.3 ± 8.6 kg/m3	–	1187 ± 8.6 kg/m3	–	1179.6 ± 8.6 kg/m3	–	1171.5 ± 8.6 kg/m3	–	1164.2 ± 8.6 kg/m3
x1 = 0.2306	1190.3 ± 8.6 kg/m3	–	1181.8 ± 8.6 kg/m3	–	1174.6 ± 8.6 kg/m3	–	1166.7 ± 8.6 kg/m3	–	1158.9 ± 8.5 kg/m3
x1 = 0.2998	–	1161.7 ± 8.5 kg/m3	–	1156.4 ± 8.5 kg/m3	–	1149.2 ± 8.5 kg/m3	–	1142.5 ± 8.5 kg/m3	–
x1 = 0.3059	1167.2 ± 8.5 kg/m3	–	1158 ± 8.5 kg/m3	–	1150.5 ± 8.5 kg/m3	–	1142.9 ± 8.5 kg/m3	–	1136 ± 8.5 kg/m3
x1 = 0.3333	1159.4 ± 8.5 kg/m3	–	1149.8 ± 8.5 kg/m3	–	1142.5 ± 8.5 kg/m3	–	1134.9 ± 8.5 kg/m3	–	1128 ± 8.5 kg/m3
x1 = 0.3996	–	1133.2 ± 8.5 kg/m3	–	1128.3 ± 8.5 kg/m3	–	1121.2 ± 8.5 kg/m3	–	1114.6 ± 8.5 kg/m3	–
x1 = 0.4011	1141.5 ± 8.5 kg/m3	–	1131.6 ± 8.5 kg/m3	–	1124.1 ± 8.5 kg/m3	–	1117.3 ± 8.5 kg/m3	–	1109.7 ± 8.5 kg/m3
x1 = 0.5	1117.4 ± 8.5 kg/m3	–	1107.1 ± 9.6 kg/m3 and 1108.1 ± 8.5 kg/m3	–	1100.2 ± 8.5 kg/m3	–	1091.1 ± 9.6 kg/m3 and 1093.5 ± 8.5 kg/m3	–	1086 ± 8.5 kg/m3
x1 = 0.5032	–	1108.7 ± 8.5 kg/m3	–	1102.3 ± 8.5 kg/m3	–	1095.3 ± 8.5 kg/m3	–	1087.4 ± 8.5 kg/m3	–
x1 = 0.5632	1102.9 ± 8.5 kg/m3	–	1093.7 ± 8.5 kg/m3	–	1086.4 ± 8.5 kg/m3	–	1079.3 ± 8.5 kg/m3	–	1071.9 ± 8.5 kg/m3
x1 = 0.5995	–	1088 ± 8.5 kg/m3	–	1081.9 ± 8.5 kg/m3	–	1075.9 ± 8.5 kg/m3	–	1068.3 ± 8.5 kg/m3	–
x1 = 0.625	1089.8 ± 8.5 kg/m3	–	1081 ± 8.5 kg/m3	–	1073.9 ± 8.5 kg/m3	–	1066.7 ± 8.5 kg/m3	–	1059.1 ± 8.5 kg/m3
x1 = 0.6992	–	1069.6 ± 8.5 kg/m3	–	1064.2 ± 8.5 kg/m3	–	1056.8 ± 8.5 kg/m3	–	1049.7 ± 8.5 kg/m3	–
x1 = 0.75	1066.1 ± 9.6 kg/m3 and 1065.4 ± 8.5 kg/m3	–	1058.1 ± 8.5 kg/m3	–	1050.9 ± 8.5 kg/m3	–	1042.7 ± 8.5 kg/m3	–	1035.3 ± 8.5 kg/m3
x1 = 0.7998	–	1052.3 ± 8.5 kg/m3	–	1045.7 ± 8.5 kg/m3	–	1038.7 ± 8.5 kg/m3	–	1031.5 ± 8.5 kg/m3	–
x1 = 0.8333	1051.7 ± 8.5 kg/m3	–	1044.3 ± 8.5 kg/m3	–	1037 ± 8.5 kg/m3	–	1028.7 ± 8.5 kg/m3	–	1021.1 ± 8.5 kg/m3
x1 = 0.9001	–	1030.8 ± 8.5 kg/m3	–	1028.9 ± 8.5 kg/m3	–	1021.2 ± 8.5 kg/m3	–	1013.9 ± 8.5 kg/m3	–
x1 = 1	1020.6 ± 8.2 kg/m3	1017.1 ± 8.2 kg/m3	1014.1 ± 8.2 kg/m3	1010.9 ± 8.2 kg/m3	1007.4 ± 8.2 kg/m3	1004.6 ± 8.2 kg/m3	1000.8 ± 8.2 kg/m3	998.4 ± 8.2 kg/m3	994.2 ± 8.2 kg/m3
